Reference: patent US10780106B2, “Method for treating NASH accompanied by fibrosis using Cl-IB-MECA” (CAN-FITE BIOPHARMA LTD., priority 2015, dated 2020)
Entries after “also recorded” stand apart in the source; their conditions may differ.

How the values were obtained:
hepatocyte = conditions: as disclosed in WO09/050707; cited from earlier work
NASH mice [1] = assay: Example 1: STZ plus high fat diet NASH mouse model, effect of CF102 on liver weight, ALT, TG and liver histology; assay type: in vivo, Male C57BL/6 mice
Protocol: Male C57BL/6 mice were used as a murine experimental model.
The A3AR agonist, 2-Chloro-N^6-(3-iodobenzyl)-adenosine-5′-N-methyluronamide (Cl-IB-MECA, referred to herein by the abbreviated name CF102), was synthesized for Can-Fite BioPharma by Albany Molecular Research Inc, Albany. N.Y., USA. CF102 was used in liquid form, dissolved in dimethyl sulfoxide (DMSO), used as the vehicle. Dissolved CF102 and the DMSO vehicle were administered at the same volume.
Male C57BL/6 mice were injected with a single subcutaneous injection of 200 μg streptozotocin (STZ) two days after birth and feeding with high fat diet after 4 weeks of age. […] Treatment was given between 6 weeks of age and 9 weeks of age.
After Study termination, liver weight was measured and Liver-to-Body weight ratio was calculated.
Plasma ALT and liver triglyceride were measured and histological analyses were made on the liver sections for the following: Hematoxylin & Eosin staining for estimation of NAFLD Activity score and Sirius red staining for estimation of fibrosis area.

NASH mice [2] = assay: Example 2: STZ plus high fat diet mouse model, effect of CF102 on NAS score; assay type: in vivo; conditions: CF102 200 μg/kg orally thrice daily, 6 to 9 weeks of age; compared to the vehicle
Protocol: Male mice were injected with 200 μg/animal STZ two days after birth. From 4 weeks of age, the mice were fed with high fat diet. At 6 weeks of age, the mice were randomized into vehicle and CF102 200 μg/kg treatment groups. Treatment was given orally, thrice daily. Termination was performed after 9 weeks. Hematoxylin & Eosin staining was used for estimation of NAFLD Activity.

[3] = Hematoxylin & Eosin liver histology, compared to the Vehicle
[4] = NASH mice, CF102 orally thrice daily from 6 to 9 weeks of age, vs vehicle

## CNC(=O)[C@H]1O[C@@H](n2cnc3c(NCc4cccc(I)c4)nc(Cl)nc32)[C@H](O)[C@@H]1O [CF102, 2-Chloro-N^6-(3-iodobenzyl)-adenosine-5′-N-methyluronamide]
hepatocyte
  hepatocyte proliferation: induce hepatocyte proliferation
NASH mice [1]; CF102 200 μg/kg, FIG. 4
  NAFLD activity score: decrease in NAFLD activity score
NASH mice [1]; [3]
  ballooning (liver sections): significant decrease
  lobular inflammation (liver sections): significant decrease
  steatosis (liver sections): significant decrease
NASH mice [1]; NASH livers in mice, CF102 orally thrice daily from 6 to 9 weeks of age, vs vehicle, p=0.05
  liver-to-body weight ratio: reduced liver-to-body weight ratio; also recorded: reduction of liver-to-body weight ratio
NASH mice [1]; [4]
  Triglycerides levels in the liver: decrease
  plasma ALT level: decreased ALT levels; also recorded: decrease in plasma ALT level
NASH mice [2]
  inflammation NAS (NAFLD Activity Score) score: reduced the inflammation NAS; also recorded: reducing the inflammation NAS score
